Laboratory results reported in patent EP0164635A2, “Imidazothiazolemethylene-acetohydrazide derivatives, preparation thereof and pharmaceutical composition having diuretic activity” (MEDIOLANUM FARMACEUTICI s.r.l., priority 1984, dated 1985).

Experiments:
rats = experiment: Diuretic activity: urinary sodium excretion over 6 hours after oral administration; assay type: in vivo, rat; conditions: read-out: Diuretic effect %; for response vs control in vivo at 20 mg/kg: dose 20 mg/kg oral; for response vs control in vivo at 5 mg/kg: dose 5 mg/kg oral
Experimental: The first series of tests was carried out to rats orally administered with distilled water (25 ml/kg) containing the product under test, previously suspended in Tween 80 (1% v/v with respect to water). Urina of the 6 hours following the treatment was collected in order to measure the sodium concentration, by means of atomic absorption. The ratio of the meq/100 g of body weight of the treated animals to the corresponding ratio of the meq/100 g of body weight of the control animals (treated with the sole vehicle) was calculated, in order to determine the dose of the test compound doubling or trebling or anyway increasing the sodium excretion.

in vivo = conditions: rat
rat [1] = experiment: Excreted urinary volumes after oral administration, with a second water load after 0-3 h; assay type: in vivo
Experimental: (§1) The compounds were administered by the oral route, under the same conditions as described in the previous test, but the animals, after the O-3 hours interval, were treated with further 25 ml/kg of distilled water, by intubation.

rat [2] = experiment: Excreted urinary electrolytes after oral administration, with a second water load after 0-3 h; assay type: in vivo
Experimental: as §1

[3] = rat, sodium urinary excretion in 6 h vs controls (control = 100)

CC(=O)Nc1nnc(S(N)(=O)=O)s1 [Acetazolamide, acetazolamide, reference compound]
response vs control in vivo at 2.5 mg/kg (rats; Rattus norvegicus, po, 6 h): 200%

CN(C)CC(=O)NN=Cc1c(Cl)nc2sccn12 [Example 1]
response vs control in vivo at 20 mg/kg (rats; [3]): 120% | LD50 (in vivo; ip): ~250 mg/kg | LD50 (in vivo; po): ~1500 mg/kg

Cc1nc2sccn2c1C=NNC(=O)CN(C)C [Example 2]
LD50 (in vivo; ip): ~600 mg/kg | LD50 (in vivo; po): ~1500 mg/kg

CN(C)CC(=O)NN=Cc1c(-c2ccccc2)nc2sccn12 [Example 3]
response vs control in vivo at 5 mg/kg (rats; [3]): 310% | LD50 (in vivo; ip): ~600 mg/kg | LD50 (in vivo; po): ~600 mg/kg

CN(C)CC(=O)NN=Cc1c(-c2ccc(Cl)cc2)nc2sccn12 [Example 4]
response vs control in vivo at 20 mg/kg (rats; [3]): 170% | LD50 (in vivo; ip): > 1000 mg/kg | LD50 (in vivo; po): > 1000 mg/kg

Cc1ccc(-c2nc3sccn3c2C=NNC(=O)CN(C)C)cc1 [Example 5]
response vs control in vivo at 5 mg/kg (rats; [3]): 130% | LD50 (in vivo; ip): > 3000 mg/kg | LD50 (in vivo; po): > 3000 mg/kg

Cc1cn2c(C=NNC(=O)CN(C)C)c(C)nc2s1 [Example 6, N,N-dimethylamino-acetyl-[[2-methyl-6-methyl-imidazo[2,1-a]thiazole-5-yl]methylene]-hydrazide]
response vs control in vivo at 10 mg/kg (rats; dose 10 mg/kg oral, rat, sodium urinary excretion in 6 h vs controls (control = 100)): 180% | LD50 (in vivo; ip): ~600 mg/kg | LD50 (in vivo; po): ~1000 mg/kg

Cc1csc2nc(-c3ccccc3)c(C=NNC(=O)CN(C)C)n12 [Example 7]
response vs control in vivo at 0.5 mg/kg (rats; dose 0.5 mg/kg oral, rat, sodium urinary excretion in 6 h vs controls (control = 100)): 250% | EXCRETED URINARY VOLUMES WITH RESPECT TO BODY WEIGHT (rat [1]; 2.5 mg/kg, 0-3 h): 0.0333 L/kg | EXCRETED URINARY VOLUMES WITH RESPECT TO BODY WEIGHT (rat [1]; 2.5 mg/kg, 0-6 h): 0.0469 L/kg | EXCRETED URINARY VOLUMES WITH RESPECT TO BODY WEIGHT (rat [1]; 2.5 mg/kg, 3-6 h): 0.0136 L/kg | EXCRETED URINARY VOLUMES WITH RESPECT TO BODY WEIGHT (rat [1]; 10 mg/kg, 0-3 h): 0.0326 L/kg | EXCRETED URINARY VOLUMES WITH RESPECT TO BODY WEIGHT (rat [1]; 10 mg/kg, 0-6 h): 0.0474 L/kg | EXCRETED URINARY VOLUMES WITH RESPECT TO BODY WEIGHT (rat [1]; 10 mg/kg, 3-6 h): 0.0147 L/kg | EXCRETED URINARY ELECTROLYTES WITH RESPECT TO BODY WEIGHT, Cl^- (rat [2]; 10 mg/kg, 0-3 h): 2.55 mEq/kg | EXCRETED URINARY ELECTROLYTES WITH RESPECT TO BODY WEIGHT, K^+ (rat [2]; 10 mg/kg, 0-3 h): 1.04 mEq/kg | EXCRETED URINARY ELECTROLYTES WITH RESPECT TO BODY WEIGHT, Na^+ (rat [2]; 10 mg/kg, 0-3 h): 2.55 mEq/kg | EXCRETED URINARY ELECTROLYTES WITH RESPECT TO BODY WEIGHT, Cl^- (rat [2]; 10 mg/kg, 0-6 h): 2.57 mEq/kg | EXCRETED URINARY ELECTROLYTES WITH RESPECT TO BODY WEIGHT, K^+ (rat [2]; 10 mg/kg, 0-6 h): 1.29 mEq/kg | EXCRETED URINARY ELECTROLYTES WITH RESPECT TO BODY WEIGHT, Na^+ (rat [2]; 10 mg/kg, 0-6 h): 2.71 mEq/kg | EXCRETED URINARY ELECTROLYTES WITH RESPECT TO BODY WEIGHT, Cl^- (rat [2]; 10 mg/kg, 3-6 h): 0.025 mEq/kg | EXCRETED URINARY ELECTROLYTES WITH RESPECT TO BODY WEIGHT, K^+ (rat [2]; 10 mg/kg, 3-6 h): 0.25 mEq/kg | EXCRETED URINARY ELECTROLYTES WITH RESPECT TO BODY WEIGHT, Na^+ (rat [2]; 10 mg/kg, 3-6 h): 0.16 mEq/kg | EXCRETED URINARY ELECTROLYTES WITH RESPECT TO BODY WEIGHT, Cl^- (rat [2]; head prints 10 mg/kg, 0-3 h): 1.53 mEq/kg | EXCRETED URINARY ELECTROLYTES WITH RESPECT TO BODY WEIGHT, K^+ (rat [2]; head prints 10 mg/kg, 0-3 h): 0.93 mEq/kg | EXCRETED URINARY ELECTROLYTES WITH RESPECT TO BODY WEIGHT, Na^+ (rat [2]; head prints 10 mg/kg, 0-3 h): 2.03 mEq/kg | EXCRETED URINARY ELECTROLYTES WITH RESPECT TO BODY WEIGHT, Cl^- (rat [2]; head prints 10 mg/kg, 0-6 h): 1.53 mEq/kg | EXCRETED URINARY ELECTROLYTES WITH RESPECT TO BODY WEIGHT, K^+ (rat [2]; head prints 10 mg/kg, 0-6 h): 1.26 mEq/kg | EXCRETED URINARY ELECTROLYTES WITH RESPECT TO BODY WEIGHT, Na^+ (rat [2]; head prints 10 mg/kg, 0-6 h): 2.17 mEq/kg | EXCRETED URINARY ELECTROLYTES WITH RESPECT TO BODY WEIGHT, Cl^- (rat [2]; head prints 10 mg/kg, 3-6 h): 0.0 mEq/kg | EXCRETED URINARY ELECTROLYTES WITH RESPECT TO BODY WEIGHT, K^+ (rat [2]; head prints 10 mg/kg, 3-6 h): 0.33 mEq/kg | EXCRETED URINARY ELECTROLYTES WITH RESPECT TO BODY WEIGHT, Na^+ (rat [2]; head prints 10 mg/kg, 3-6 h): 0.14 mEq/kg | LD50 (in vivo; ip): > 3000 mg/kg | LD50 (in vivo; po): > 3000 mg/kg
